Data reported in PubChem BioAssay AID449762 (Southern Research Specialized Biocontainment Screening …, 2010).
Records with an inconclusive call do not appear.

Tested on: M. tuberculosis H37Rv growth inhibition, 7H9 media
Experiment: M. tuberculosis growth inhibition, HTS (AID 449762);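 further: bacterial growth assessed after seven days of incubation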
Settings: for IC90: measured here: IC90 growth inhibition

## CCCOc1ccc2c(c1)C(=NN=C(N)N)c1cc(OCCC)ccc1-2
  IC50: 12.4 µM
  IC90: 13.1 µM

## COc1ccc(-c2nnn(CC(=O)OC3CCCCC3)n2)cc1OC
  IC50: 5.71 µM
  IC90: 62.7 µM

## Oc1ccc2ccccc2c1C1Nc2cccc3cccc(c23)N1
  IC50: 75 µM
  IC90: > 100 µM

## Cc1ccc(/C=C(\NC(=O)c2ccc(C)cc2)c2nc(=S)[nH][nH]2)cc1
  IC50: 39.5 µM
  IC90: 48.9 µM

## CN1CCN(c2cc(-c3ccccc3)nc3cc(-c4ccc(F)cc4)nn23)CC1
  IC50: 11.4 µM
  IC90: 15.7 µM

## COc1ccc(N/N=C(/N=Nc2nc(C)cc(=O)[nH]2)c2ccccc2)cc1
  IC50: 5.91 µM
  IC90: 6.69 µM

## CCN1C(=NCCc2ccc(Br)cc2)N[C@@H](c2ccccc2)[C@H](C(=O)OC)[C@H]1C
  IC50: 16.7 µM
  IC90: 22.1 µM

## CC(=O)N1C(Nc2ccc(Cl)cc2)CCN1c1ccccc1 (centres undefined)
  IC90: > 100 µM

## O=c1[nH]c(CSc2cccc[n+]2[O-])nc2ccccc12
  IC50: 96.4 µM
  IC90: > 100 µM

## C=C(C)C1CC=C(CN2CCN(Cc3ccccc3)CC2)CC1 (centres undefined)
  IC50: 15.7 µM
  IC90: 25.9 µM

## CCOc1ccc(-n2cc(-c3ccccc3)c3c(=O)[nH]cnc32)cc1
  IC50: 8.41 µM
  IC90: 27.5 µM

## CCCOc1cccc(-c2nn(-c3ccccc3)cc2/C=C(\C#N)C(=O)NCCCn2ccnc2)c1
  IC50: 44.7 µM
  IC90: 62.3 µM

## C[CH2][Hg][S]c1ccccc1C(=O)O
  IC50: 0.34 µM
  IC90: 0.81 µM

## Nn1c(SCc2ccccc2)nc2ccccc21
  IC50: 28 µM
  IC90: > 100 µM

## COC(=O)C1=C(c2ccc(OCc3ccccc3)cc2)C[C@@H]2CC[C@H]1N2C(=O)NC1CCN(Cc2ccccc2)CC1
  IC50: 24.4 µM
  IC90: 27.5 µM

## Cc1ccc2c(c1)C1C[N+](C)(CC(=O)c3ccc(Cl)cc3Cl)CCC1N2C(=O)c1ccc(F)cc1 (centres undefined)
  IC50: 23.9 µM
  IC90: 27.1 µM

## COC(=O)C(C)Oc1ccc2c(c1)O/C(=C\c1ccco1)C2=O (centres undefined)
  IC50: 5.58 µM
  IC90: 16 µM

## CC(/C=C/C=C/c1ccccc1)=N\NC(=O)c1cccnc1
  IC50: 91.8 µM
  IC90: > 100 µM

## Cc1ccc(/C=N/NC(=S)NC(C)C)o1
  IC50: 42.4 µM
  IC90: 47.9 µM

## CC(C)(C)c1ccc(Cn2nnc3c(=O)[nH]c(C4CCCN(C(=O)Cc5cccs5)C4)nc32)cc1 (centres undefined)
  IC50: 35.2 µM
  IC90: 47.8 µM

## CCOc1ccc(NC(=S)Nc2cc(-c3ccccc3)[nH]n2)cc1
  IC50: 92.6 µM
  IC90: > 100 µM

## CCC[C@@H]1C[C@@H](C(=O)NC(C(C)Cl)[C@H]2O[C@H](SC)[C@H](O)[C@@H](O)[C@H]2O)N(C)C1 (some centres undefined)
  IC50: 1.53 µM
  IC90: 5.1 µM

## Cc1cc(C)c(CSc2ncc(-c3ccc([N+](=O)[O-])cc3)[nH]2)c(C)c1
  IC50: 42.5 µM
  IC90: 62.8 µM

## CN(c1ccccc1)c1ccc(/C=C/[N+](=O)[O-])cc1
  IC50: 8.97 µM
  IC90: 16.9 µM

## COc1ccc(C2=NC(=O)/C(=C\c3cc(OC)c(OC)c(OC)c3)O2)cc1
  IC50: 5.71 µM
  IC90: 49.3 µM

## Cc1ccsc1/C=C1\SC(N2CCOCC2)=NC1=O
  IC50: 21.9 µM
  IC90: 34.1 µM

## O=[N+]([O-])c1ccc(Sc2cc[n+]([O-])c3ccccc23)c([N+](=O)[O-])c1
  IC50: 16.1 µM
  IC90: 24.3 µM

## O=c1oc2ccccc2c(Nc2ccccc2O)c1[N+](=O)[O-]
  IC50: 7.1 µM
  IC90: 14 µM

## COCCNC(=S)N/N=C(\C)c1ccc(OC)cc1
  IC50: 40.8 µM
  IC90: 49.4 µM

## O=C1CCCC2=C1C1c3ccccc3C(=O)N1c1ccc(C(=O)c3ccccc3)cc1N2 (centres undefined)
  IC50: 16 µM
  IC90: 21.9 µM

## CN1/C(=C\C(=O)COC(=O)c2ccc([N+](=O)[O-])o2)C(C)(C)c2ccccc21
  IC50: 1.04 µM
  IC90: 3.54 µM

## Oc1ccc(Nc2nc(-c3ccc4ccccc4c3)cs2)cc1
  IC50: 42.9 µM
  IC90: > 100 µM

## CC(C)(C)Nc1nc(NC(C)(C)C)nc(-n2ccnc2)n1
  IC50: 14.6 µM
  IC90: > 100 µM

## Cc1nn(-c2ccccc2)c(N2CCCC2)c1/C=N/Nc1ccc(S(N)(=O)=O)cc1[N+](=O)[O-]
  IC90: > 100 µM

## O=C(Nc1cccc(Cl)c1)N1CCN(C/C=C/c2ccccc2)CC1
  IC50: 37.5 µM
  IC90: 52.7 µM

## C=CCOc1ccccc1CN(C(=O)CCl)c1ccc2c(c1)OCO2
  IC50: 0.92 µM
  IC90: 2.58 µM

## CCCCCCCCSc1nnc(CSc2nc3nc(C)cc(C)n3n2)o1
  IC50: 1.05 µM
  IC90: 8.29 µM

## COc1ccc(C2CC(c3cccs3)=Nc3ccccc3S2)cc1 (centres undefined)
  IC50: 30.1 µM
  IC90: 44 µM

## CCOC(=O)c1ccc(NC(=O)CCc2nc(-c3ccc(Cl)cc3)no2)cc1
  IC50: 27.4 µM
  IC90: > 100 µM

## O=C1CC(=C(c2ccccc2)c2ccccc2)C(=O)N1CCCCN1CCN(c2ccccc2)CC1
  IC50: 22.8 µM
  IC90: 26 µM

## Cc1ccc(CNc2ccc3c(c2)ncn3C(C)(C)C)cc1
  IC50: 7.41 µM
  IC90: 14.8 µM

## CC(C)NC(=S)N/N=C/c1cc(Br)ccc1O
  IC50: 6.79 µM
  IC90: 18.3 µM

## CCOc1ccccc1NC(=O)C12CC3CC(C1)CC(c1ccc(C)cc1)(C3)C2
  IC50: 30.1 µM
  IC90: > 100 µM

## Cc1ccc2c(c1)c1c3n2CCN=C3CCC1
  IC50: 10.3 µM
  IC90: 19 µM

## O=C(O)/C=C/C(=O)Nc1ccc(-c2ccccc2)cc1
  IC50: 34.3 µM
  IC90: > 100 µM

## COc1ccc(-c2c(C#N)c(SCC(=O)c3cc4ccccc4oc3=O)nc(C)c2C(=O)Nc2ccccc2)cc1
  IC50: 45.9 µM
  IC90: 75.6 µM

## COc1cc(NC(C)CCCN)c2ncccc2c1 (centres undefined)
  IC50: 9.14 µM
  IC90: 13.9 µM

## CCOC(=O)C(/C=C(\C#N)C(=O)OCC)=C(/N)N1CCN(c2ccc(Cl)cc2)CC1
  IC50: 18.5 µM
  IC90: > 100 µM

## CCCC1CC(C)(c2csc(Nc3ccc(OCC)cc3)n2)OC1=O (centres undefined)
  IC50: 33.5 µM
  IC90: 46.5 µM

## Cc1cc(C)n(-c2cc(C(C)(C)C)nc3c(-c4ccccc4)cnn23)n1
  IC50: 27.3 µM
  IC90: 34.7 µM

## CC(OC(=O)c1cc(Cl)ccc1[N+](=O)[O-])C(=O)NC(C)c1ccc(F)cc1 (centres undefined)
  IC50: 22.8 µM
  IC90: 26 µM

## CC(C)(C)NC(=O)C(c1c[nH]c2ccccc12)N(C(=O)Cn1nnc(-c2ccc(F)cc2)n1)c1cccc(O)c1 (centres undefined)
  IC50: 64 µM
  IC90: > 100 µM

## CCOc1ccc(Nc2cc(C)nc(-n3nc(C)cc3C)n2)cc1
  IC50: 0.7 µM
  IC90: 4.77 µM

## CCOC(=O)c1ccc(N=Cc2nc3ccccc3n2C)cc1
  IC50: 63.5 µM
  IC90: > 100 µM

## O=[N+]([O-])c1ccc(N2CCCCC2)s1
  IC50: 7.61 µM
  IC90: 17.9 µM

## C=C[C@]1(C)C[C@@H](OC(=O)CSCCN(CC)CC)[C@]2(C)C(C)CC[C@]3(CCC(=O)[C@H]32)[C@@H](C)[C@@H]1O (some centres undefined)
  IC50: 4.03 µM
  IC90: 7.7 µM

## COC(=O)c1cc(Sc2cccc(Cl)c2Cl)ccn1
  IC50: 20.6 µM
  IC90: 30.7 µM

## CC/C(=C(\c1ccc(O)cc1)c1ccc(OCCN(C)C)cc1)c1ccccc1
  IC50: 22.5 µM
  IC90: 35.4 µM

## O=[N+]([O-])c1ccc(CN2CCN(c3ccc(Cl)cc3)CC2)o1
  IC50: < 0.2 µM
  IC90: < 0.2 µM

## COc1ccc(N/C=C/C(=O)c2sc(-c3ccccc3)nc2C)cc1
  IC50: 30.8 µM
  IC90: 55.4 µM

## CCCCSCCCNC(=O)c1cn(CC)c2ccc(S(=O)(=O)N3CCOCC3)cc2c1=O
  IC50: 23.7 µM
  IC90: 44.9 µM

## CC(=O)Oc1ccc(/C=N\NC(=O)c2cc3c(ccc4ccccc43)o2)cc1
  IC50: 58.5 µM
  IC90: > 100 µM

## CCn1c(NC(=O)c2nn(C)cc2Br)nc2ccccc21
  IC50: 4.39 µM
  IC90: 12.7 µM
